Legend:
Test in all cases: cells
Type in all cases: functional, cell-based
Conditions in all cases: Homo sapiens
[1] = test system: SK-OV-3;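 further: growth inhibition of SK-OV-3 human cells, read out with a cell viability assay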
Description: SANGER: Inhibition of human SK-OV-3 cell growth in a cell viability assay.

[2] = test system: C3A;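 further: growth inhibition of C3A human cells, quantified with a cell viability readout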
Description: SANGER: Inhibition of human C3A cell growth in a cell viability assay.

[3] = test system: NCI-H2087;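 further: growth inhibition determined with a cell viability readout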
Description: SANGER: Inhibition of human NCI-H2087 cell growth in a cell viability assay.

[4] = test system: HTC-C3;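 further: inhibition of cell growth, read out with a cell viability assay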
Description: SANGER: Inhibition of human HTC-C3 cell growth in a cell viability assay.

[5] = test system: AGS;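 further: growth inhibition of AGS cells, determined with a cell viability assay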
Description: SANGER: Inhibition of human AGS cell growth in a cell viability assay.

[6] = test system: MDA-MB-175-VII
[7] = test system: PFSK-1;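 further: cell viability assay measuring how strongly compounds suppress growth of human PFSK-1 cells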
Description: SANGER: Inhibition of human PFSK-1 cell growth in a cell viability assay.

[8] = test system: HT-1376
Description: SANGER: Inhibition of human HT-1376 cell growth in a cell viability assay.

[9] = test system: KP-4;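 further: human KP-4 cells, with growth inhibition read out through a cell viability assay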
Description: SANGER: Inhibition of human KP-4 cell growth in a cell viability assay.

[10] = test system: NCI-H2452;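 further: growth inhibition of NCI-H2452 cells, read out with a cell viability assay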
Description: SANGER: Inhibition of human NCI-H2452 cell growth in a cell viability assay.

[11] = test system: GAMG;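 further: cell growth inhibition measured by a viability assay in the GAMG human cell line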
Description: SANGER: Inhibition of human GAMG cell growth in a cell viability assay.

[12] = test system: CAKI-1;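 further: growth inhibition of CAKI-1 cells, measured by a cell viability assay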
Description: SANGER: Inhibition of human CAKI-1 cell growth in a cell viability assay.

[13] = test system: AN3-CA;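 further: growth inhibition of human AN3-CA cells measured by a cell viability assay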
Description: SANGER: Inhibition of human AN3-CA cell growth in a cell viability assay.

[14] = test system: NCI-H2291
Description: SANGER: Inhibition of human NCI-H2291 cell growth in a cell viability assay.

[15] = test system: DOK;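 further: cell viability assay read-out, values reflect inhibition of cell growth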
Description: SANGER: Inhibition of human DOK cell growth in a cell viability assay.

[16] = test system: CaR-1;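 further: growth inhibition of human CaR-1 cancer cells, read out with a cell viability assay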
Description: SANGER: Inhibition of human CaR-1 cell growth in a cell viability assay.

[17] = test system: NCI-H1703;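 further: growth inhibition of NCI-H1703 cells, read out via a cell viability assay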
Description: SANGER: Inhibition of human NCI-H1703 cell growth in a cell viability assay.

[18] = test system: CAL-62;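 further: growth inhibition of CAL-62 cells, read out with a cell viability assay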
Description: SANGER: Inhibition of human CAL-62 cell growth in a cell viability assay.

[19] = test system: M059J;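 further: growth inhibition of M059J cells, read out with a cell viability assay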
Description: SANGER: Inhibition of human M059J cell growth in a cell viability assay.

[20] = test system: D-566MG
[21] = test system: HCC1569;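 further: growth inhibition of human HCC1569 cells, read out with a cell viability assay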
Description: SANGER: Inhibition of human HCC1569 cell growth in a cell viability assay.

[22] = test system: MG-63;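 further: growth inhibition of human MG-63 cells, read out with a cell viability assay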
Description: SANGER: Inhibition of human MG-63 cell growth in a cell viability assay.

[23] = test system: HT55;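 further: cell viability readout measuring growth inhibition of human HT55 cells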
Description: SANGER: Inhibition of human HT55 cell growth in a cell viability assay.

[24] = test system: RERF-LC-MS;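 further: growth inhibition of human RERF-LC-MS cells, read out by a cell viability assay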
Description: SANGER: Inhibition of human RERF-LC-MS cell growth in a cell viability assay.

[25] = test system: NY
Description: SANGER: Inhibition of human NY cell growth in a cell viability assay.

[26] = test system: A 172;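 further: growth inhibition of A172 cells, measured with a cell viability readout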
Description: SANGER: Inhibition of human A172 cell growth in a cell viability assay.

[27] = test system: NCI-H2347;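 further: growth inhibition of the cell line, read out with a cell viability assay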
Description: SANGER: Inhibition of human NCI-H2347 cell growth in a cell viability assay.

[28] = test system: 769-P
Description: SANGER: Inhibition of human 769-P cell growth in a cell viability assay.

[29] = test system: SK-N-AS;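 further: growth inhibition of human SK-N-AS cells, measured with a cell viability assay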
Description: SANGER: Inhibition of human SK-N-AS cell growth in a cell viability assay.

[30] = test system: HuO9;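 further: growth inhibition of HuO9 cells, read out with a cell viability assay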
Description: SANGER: Inhibition of human HuO9 cell growth in a cell viability assay.

[31] = test system: CAL-85-1;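 further: growth inhibition of human CAL-85-1 cells, read out with a cell viability assay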
Description: SANGER: Inhibition of human CAL-85-1 cell growth in a cell viability assay.

[32] = test system: SKG-IIIa;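 further: cell growth inhibition, read out with a cell viability assay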
Description: SANGER: Inhibition of human SKG-IIIa cell growth in a cell viability assay.

[33] = test system: KYSE-450;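 further: cell growth inhibition measured by a viability assay in human KYSE-450 cells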
Description: SANGER: Inhibition of human KYSE-450 cell growth in a cell viability assay.

[34] = test system: WM-115
Description: SANGER: Inhibition of human WM-115 cell growth in a cell viability assay.

[35] = test system: NCI-H460;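 further: cell viability assay scoring growth inhibition of human NCI-H460 cells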
Description: SANGER: Inhibition of human NCI-H460 cell growth in a cell viability assay.

[36] = test system: PC-3;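 further: cell viability assay measuring growth inhibition of PC-3 cells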
Description: SANGER: Inhibition of human PC-3 cell growth in a cell viability assay.

[37] = test system: D-423MG
Description: SANGER: Inhibition of human D-423MG cell growth in a cell viability assay.

[38] = test system: OE19;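 further: growth inhibition of OE19 cells, measured through a cell viability read-out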
Description: SANGER: Inhibition of human OE19 cell growth in a cell viability assay.

[39] = test system: SK-MEL-30;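 further: growth inhibition of SK-MEL-30 cells, determined with a cell viability assay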
Description: SANGER: Inhibition of human SK-MEL-30 cell growth in a cell viability assay.

[40] = test system: Panc1005;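 further: growth inhibition of human PANC-10-05 cells, measured by a cell viability assay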
Description: SANGER: Inhibition of human PANC-10-05 cell growth in a cell viability assay.

[41] = test system: SW1417;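 further: growth inhibition of human SW1417 cells, read out with a cell viability assay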
Description: SANGER: Inhibition of human SW1417 cell growth in a cell viability assay.

[42] = test system: HN
Description: SANGER: Inhibition of human HN cell growth in a cell viability assay.

[43] = test system: Hs-578T
Description: SANGER: Inhibition of human Hs-578-T cell growth in a cell viability assay.

[44] = test system: BALL-1;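 further: growth inhibition of BALL-1 cells, read out with a cell viability assay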
Description: SANGER: Inhibition of human BALL-1 cell growth in a cell viability assay.

[45] = test system: HuP-T3;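 further: HuP-T3 cell growth inhibition, read out with a cell viability assay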
Description: SANGER: Inhibition of human HuP-T3 cell growth in a cell viability assay.

[46] = test system: CAL-33;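 further: growth inhibition of CAL-33 cells, read out with a cell viability assay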
Description: SANGER: Inhibition of human CAL-33 cell growth in a cell viability assay.

[47] = test system: NB7;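 further: growth inhibition of NB7 cells, read out with a cell viability assay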
Description: SANGER: Inhibition of human NB7 cell growth in a cell viability assay.

[48] = test system: SNU-449
Description: SANGER: Inhibition of human SNU-449 cell growth in a cell viability assay.

Structure (SMILES): Cn1cc(/C=C2\C(=O)Nc3cccnc32)c2ccccc21
- IC50 [1]: 0.397 µM
- IC50 [2]: > 2 µM
- IC50 [3]: > 2 µM
- IC50 [4]: > 2 µM
- IC50 [5]: > 2 µM
- IC50 [6]: > 2 µM
- IC50 [7]: > 2 µM
- IC50 [8]: > 2 µM
- IC50 [9]: > 2 µM
- IC50 [10]: > 2 µM
- IC50 [11]: > 2 µM
- IC50 [12]: > 2 µM
- IC50 [13]: > 2 µM
- IC50 [14]: > 2 µM
- IC50 [15]: > 2 µM
- IC50 [16]: > 2 µM
- IC50 [17]: 0.299 µM
- IC50 [18]: > 2 µM
- IC50 [19]: > 2 µM
- IC50 [20]: > 2 µM
- IC50 [21]: > 2 µM
- IC50 [22]: > 2 µM
- IC50 [23]: > 2 µM
- IC50 [24]: > 2 µM
- IC50 [25]: > 2 µM
- IC50 [26]: > 2 µM
- IC50 [27]: > 2 µM
- IC50 [28]: > 2 µM
- IC50 [29]: > 2 µM
- IC50 [30]: > 2 µM
- IC50 [31]: > 2 µM
- IC50 [32]: > 2 µM
- IC50 [33]: > 2 µM
- IC50 [34]: > 2 µM
- IC50 [35]: > 2 µM
- IC50 [36]: > 2 µM
- IC50 [37]: > 2 µM
- IC50 [38]: > 2 µM
- IC50 [39]: > 2 µM
- IC50 [40]: > 2 µM
- IC50 [41]: > 2 µM
- IC50 [42]: > 2 µM
- IC50 [43]: > 2 µM
- IC50 [44]: > 2 µM
- IC50 [45]: > 2 µM
- IC50 [46]: > 2 µM
- IC50 [47]: 1.98 µM
- IC50 [48]: > 2 µM

Structure (SMILES): NC(=O)c1ncn([C@@H]2O[C@H](COP(=O)(O)O)[C@@H](O)[C@H]2O)c1N
- IC50 [1]: > 2000 µM
- IC50 [2]: > 2000 µM
- IC50 [3]: > 2000 µM
- IC50 [4]: 252 µM
- IC50 [5]: > 2000 µM
- IC50 [6]: > 2000 µM
- IC50 [7]: > 2000 µM
- IC50 [8]: > 2000 µM
- IC50 [9]: > 2000 µM
- IC50 [10]: > 2000 µM
- IC50 [11]: > 2000 µM
- IC50 [12]: > 2000 µM
- IC50 [13]: > 2000 µM
- IC50 [14]: > 2000 µM
- IC50 [15]: 657 µM
- IC50 [16]: 1650 µM
- IC50 [17]: > 2000 µM
- IC50 [18]: > 2000 µM
- IC50 [19]: > 2000 µM
- IC50 [20]: > 2000 µM
- IC50 [21]: 994 µM
- IC50 [22]: > 2000 µM
- IC50 [23]: > 2000 µM
- IC50 [25]: 495 µM
- IC50 [26]: > 2000 µM
- IC50 [27]: > 2000 µM
- IC50 [28]: > 2000 µM
- IC50 [29]: > 2000 µM
- IC50 [30]: 1970 µM
- IC50 [32]: > 2000 µM
- IC50 [33]: 1300 µM
- IC50 [34]: > 2000 µM
- IC50 [35]: 1360 µM
- IC50 [36]: 349 µM
- IC50 [37]: > 2000 µM
- IC50 [38]: > 2000 µM
- IC50 [39]: > 2000 µM
- IC50 [40]: > 2000 µM
- IC50 [41]: > 2000 µM
- IC50 [42]: 252 µM
- IC50 [43]: > 2000 µM
- IC50 [44]: > 2000 µM
- IC50 [45]: 1350 µM
- IC50 [46]: 1310 µM
- IC50 [47]: 901 µM
- IC50 [48]: > 2000 µM

Structure (SMILES): COc1cc(Nc2c(C#N)cnc3cc(OCCCN4CCN(C)CC4)c(OC)cc23)c(Cl)cc1Cl [BOSUTINIB]
- IC50 [1]: > 2 µM
- IC50 [2]: > 2 µM
- IC50 [3]: > 2 µM
- IC50 [4]: > 2 µM
- IC50 [5]: > 2 µM
- IC50 [6]: > 2 µM
- IC50 [7]: > 2 µM
- IC50 [8]: 1.64 µM
- IC50 [9]: > 2 µM
- IC50 [10]: > 2 µM
- IC50 [11]: > 2 µM
- IC50 [12]: > 2 µM
- IC50 [13]: > 2 µM
- IC50 [14]: > 2 µM
- IC50 [15]: 0.378 µM
- IC50 [16]: > 2 µM
- IC50 [17]: > 2 µM
- IC50 [18]: > 2 µM
- IC50 [19]: > 2 µM
- IC50 [20]: 1.57 µM
- IC50 [21]: > 2 µM
- IC50 [22]: > 2 µM
- IC50 [23]: > 2 µM
- IC50 [24]: > 2 µM
- IC50 [25]: > 2 µM
- IC50 [26]: > 2 µM
- IC50 [27]: > 2 µM
- IC50 [28]: 1.7 µM
- IC50 [29]: > 2 µM
- IC50 [30]: > 2 µM
- IC50 [31]: > 2 µM
- IC50 [32]: > 2 µM
- IC50 [33]: > 2 µM
- IC50 [34]: > 2 µM
- IC50 [35]: > 2 µM
- IC50 [36]: > 2 µM
- IC50 [37]: > 2 µM
- IC50 [38]: > 2 µM
- IC50 [39]: > 2 µM
- IC50 [40]: > 2 µM
- IC50 [41]: > 2 µM
- IC50 [42]: 1.9 µM
- IC50 [43]: > 2 µM
- IC50 [44]: > 2 µM
- IC50 [45]: > 2 µM
- IC50 [46]: 1.19 µM
- IC50 [47]: 0.0823 µM
- IC50 [48]: > 2 µM

— ChEMBL document CHEMBL1201861, “Genomics of Drug Sensitity in Cancer screening data, Wellcome Trust Sanger Institute”
